{
  "source": "patent US6441193B1",
  "about": "“Estrogen agonists/antagonists” (Pfizer Inc., priority 1995, dated 2002)",
  "key": {"prostate": {"system": "prostate", "test": "Effect on prostate weight (wet prostate weight after 14 days of daily subcutaneous injection)", "type": "in vivo, rat", "settings": "male Sprague-Dawley rats, s.c. daily for 14 days", "description": "Male Sprague-Dawley rats, three months of age are administered by subcutaneous injection either vehicle (10% ethanol in water), estradiol (30 μg/kg), testosterone (1 mg/kg) or a compound of formula I daily for 14 days (n=6/group). After 14 days the animals are sacrificed, the prostate is removed and the wet prostate weight is determined. Mean weight is determined and statistical significance (p<0.05) is determined compared to the vehicle-treated group using Student's t-test."}, "ventral prostate": {"system": "ventral prostate", "settings": "male rats; cited from earlier work"}},
  "data": [
    {"smiles": "C[C@]12CC[C@H]3[C@@H](CCC4=CC(=O)CC[C@@]43C)[C@@H]1CC[C@@H]2O", "note": "[Testosterone, testosterone]", "values": [
      {"measurement": "wet prostate weight compared to vehicle", "setting": "prostate; testosterone 1 mg/kg", "result": "no effect"}
    ]},
    {"smiles": "C[C@]12CC[C@@H]3c4ccc(O)cc4CC[C@H]3[C@@H]1CC[C@@H]2O", "note": "[estrogen, estradiol]", "values": [
      {"measurement": "wet prostate weight compared to vehicle", "setting": "prostate; 30 μg/kg", "result": "significantly reduces prostate weight"}
    ]},
    {"smiles": "O=C(c1ccc(OCCN2CCCCC2)cc1)c1c(-c2ccc(O)cc2)sc2cc(O)ccc12", "note": "[raloxifene, 6-hydroxy-2-(4-hydroxyphenyl)-3-[4-(2-piperidinoethoxy)benzoyl] benzo[b] thiophene]", "values": [
      {"measurement": "effect on ventral prostate", "setting": "ventral prostate", "result": "regression of the ventral prostate"}
    ]}
  ]
}
